Patent US9750742B2, “Small molecular inhibitors of RAD51 recombinase and methods thereof” (Drexel University, priority 2011, dated 2017)
Entries after “also recorded” stand apart in the source; their conditions may differ.

Key:
[1] = target: T1, RAD51 (Homo sapiens, UniProt Q06609); assay: B02 binding to RAD51 by SPR; details: absence of ATP
T1 construct: made in house
T1 sequence (Q06609 1-339): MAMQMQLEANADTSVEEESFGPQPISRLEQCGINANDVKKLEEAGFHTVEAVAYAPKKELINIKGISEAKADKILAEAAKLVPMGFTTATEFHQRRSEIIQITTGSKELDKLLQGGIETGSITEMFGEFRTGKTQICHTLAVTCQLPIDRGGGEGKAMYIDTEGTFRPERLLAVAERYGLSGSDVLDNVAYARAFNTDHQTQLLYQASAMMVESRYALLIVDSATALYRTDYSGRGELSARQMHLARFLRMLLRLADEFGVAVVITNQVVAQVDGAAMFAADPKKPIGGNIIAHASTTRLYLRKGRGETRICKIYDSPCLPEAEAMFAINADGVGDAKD
Description: Data were analyzed using the ProteOn Manager Software version 3.0 (Bio-Rad).

[2] = tested on: HEK cells; assay: Clonogenic survival, HEK cells sensitivity to cisplatin; assay type: cell-based, human
Description: (§1) Briefly, MEF cells were trypsinized and the appropriate number of cells was replated on 10 cm tissue culture dishes. […] Cells were fixed and stained using staining solution (0.05% crystal violet, 50% methanol in PBS); colonies were counted using an AlphaImager 3400 (Alpha Innotech Inc.). The percent of survival was determined as described (Hall & Giccia, 2005, “Radiobiology for the Radiologist”, 6th Ed., Philadelphia, Pa.: Lippincott Williams & Wilkins, pp. 30-45). The percent of survival obtained from untreated cells was normalized to 100% survival.
To suppress RAD51 expression, HEK cells were transfected with 100 nM RAD51 siRNA (sc-36361; Santa Cruz Biotechnology). Briefly, cells (1×10^6) were seeded in a 3.5-cm tissue culture plate and incubated overnight, then the medium was removed and the cell layer was washed three times with PBS. Transfection was carried out by adding 1 ml transfection solution containing 100 pmol […] siRNA and 10 μl siRNA transfection reagent (sc-29528; Santa Cruz Biotechnology) in Opti-MEM I Reduced-Serum medium (Invitrogen) to each plate. Six to 7 hours after transfection the medium was replaced with fresh DMEM+. Twenty-four, 48, 72, and 96 h after transfection, the RAD51 level was determined using Western blotting. As a specificity control scrambled siRNA (sc-37007; Santa Cruz Biotechnology) was used instead of RAD51 siRNA.

[3] = target: T1, RAD51; assay: Effect on RAD51 oligomerization (gel filtration); details: B02 200 μM, RAD51 13.5 μM
Description: The samples were then centrifuged for 15 min at 16,000×g, 4° C. Supernatants were loaded on a Superose 6 10/300 GL column (GE Healthcare) equilibrated with buffer E and eluted with a flow rate of 0.2 ml/min at 4° C. The gel filtration molecular weight marker kit (29-669 kDa, Sigma) was used for column calibration. The 0.3-ml fractions were collected and analyzed by electrophoresis in a 12% SDS-PAGE gel (100 V, 90 min).

[4] = tested on: Tp53−/− MEF cells; assay: Clonogenic survival assay, Tp53−/− MEF; assay type: cell-based, mouse
Description: as §1

[5] = tested on: I-SceI; assay: Western blotting, I-SceI expression level; assay type: cell-based; details: with or without B02
Description: Then, both pCBASce-transfected and untransfected cells were trypsinized and resuspended in DMEM supplemented with 10% FBS, 100 units/ml penicillin and 100 μg/ml streptomycin. The suspensions were centrifuged at 1000×g for 5 min at 4° C., the pellets were washed 3 times with cold PBS and then resuspended in lysate buffer containing 50 mM HEPES (pH 7.5), 50 mM NaCl, 5 mM EDTA, 1% Triton X-100, 50 mM NaF, and 10 mM Na4P2O7, 1 mM phenylmethylsulfonyl fluoride (PMSF) and proteinase inhibitor cocktail (Roche Applied Science) for 30 min at 4° C. The cell lysates were centrifuged at 16000×g, for 15 min at 4° C. The supernatants were collected and protein concentrations were determined by the Bradford assay using bovine serum albumin (BSA) as a standard. Equivalent amounts of proteins were loaded on 12% SDS-PAGE gels and after electrophoretic separation were transferred on a PVDF membrane (Osmonics, Inc). […] Immunoblot signals were detected using Enhanced Chemiluminescence (ECL) reagent (Pierce). […]

[6] = tested on: RAD51; assay: Western blotting, RAD51 expression level; assay type: cell-based, human; details: B02 20 μM versus no treatment
Description: The pellets were washed three times with cold PBS and then resuspended in lysis buffer containing 50 mM HEPES, pH 7.5, 50 mM NaCl, 5 mM EDTA, 1% Triton X-100, 50 mM NaF, and 10 mM Na4P2O7, 1 mM PMSF, and proteinase inhibitor cocktail (Roche Applied Science) for 30 min at 4° C. The cell lysates were centrifuged at 16,000×g, for 15 min at 4° C., and then the supernatants were collected and protein concentrations were determined using the Bradford assay. Aliquots containing 50 Ξg of total protein were analyzed by 12% SDS-PAGE. […]
Then, both pCBASce-transfected and untransfected cells were trypsinized and resuspended in DMEM supplemented with 10% FBS, 100 units/ml penicillin and 100 μg/ml streptomycin. […] The supernatants were collected and protein concentrations were determined by the Bradford assay using bovine serum albumin (BSA) as a standard. […] Immunoblot signals were detected using Enhanced Chemiluminescence (ECL) reagent (Pierce). […]

[7] = target: T1, RAD51; assay: DNA binding assay (RAD51-ssDNA complexes); assay type: biochemical; details: B02 25 μM, without NaCl challenge
Description: DNA binding assay was performed as described (Bugreev et al., 2005, J. Biol. Chem. 280:26886-95). […] After 10 min, reactions was mixed with 0.2 vol of loading buffer and loaded on 10% polyacrylamide gels (135 V, 20 mA) in 0.5×TBE buffer containing 45 mM Tris borate (pH 8.3) and 0.25 mM EDTA. Gels were quantified using a Storm 840 PhosphorImager.

With `O=c1c2ccccc2nc(/C=C/c2cccnc2)n1Cc1ccccc1` [Compound B02, (E)-3-benzyl-2-(2-(pyridin-3-yl)vinyl)quinazolin-4(3H)-one] the kd [1] was 2.5 (±0.3)×10^−2 s^−1, the “incubation time at which maximal sensitivity was reached” value ([2]; B02 5 μM, cisplatin 16 μM) was 16 h and the “incubation time required to increase the sensitivity of HEK cells for cisplatin” value ([2]; B02 5 μM, cisplatin 16 μM) was 10 to 12 h. For the same compound, the “sensitization of HEK cells to cisplatin” value ([2]; B02 combined with RAD51 siRNA versus each alone) was “more strongly sensitized”, the RAD51 oligomerization [3] was “does not affect RAD51 oligomerization” and the “sensitivity to cisDDP (cisplatin) and MMC” value ([4]; B02 5 μM) was “more sensitive; also recorded: increased”. For the same compound, the “cellular viability, B02 alone” value ([4]; up to 5 μM, Tp53−/− MEF) was “No decrease of cellular viability; also recorded: did not have a substantial effect”, the “expression of I-SceI protein” value [5] was “did not affect” and the “expression of RAD51” value [6] was “comparable”. It also gave a loss of filaments [7] of 20%.
